US11400283B2, “Pulse generating device for delivery of electrical pulses to a desired tissue of a mammal” (SC[…] AB, priority 2017, dated 2022)

Conditions: rat, 6 hours after electroporation treatment, 800 V/cm, 12 pulses of 250 μs length
Experimental: FIG. 3 schematically illustrates a Gamma Camera image of a rat taken 6 hours after an electroporation treatment with electrical field strength of 800 V/cm and 12 pulses of 250 μs length. […] In FIG. 3, the injection site, the electroporation site and three reference sites are shown.
Further, investigation of the effect of applied electric pulses of 600, 800, 1000, 1200 V/cm; having 100 and 500 μs pulse length, and 2, 4, 6 or 12 pulses, on the accumulation of the radiolabeled pharmaceutical ^99mTc-DTPA that mimics the Bleomycin, in rat muscular tissue after in vivo electro-permeabilization has been performed. Gamma camera measurements is applied to noninvasively quantify the accumulation of ^99mTc-DTPA in the region treated with electrical pulses as previously described.

O=C([O-])CN(CCN(CC(=O)[O-])CC(=O)[O-])CCN(CC(=O)[O-])CC(=O)[O-].[99Tc+4] [99Tcm-DTPA, 99Tcm- diethylene-triamine-penta-acetic-acid]
activity in the electroporated site (Gamma Camera image): high activity | activity in the reference sites (Gamma Camera image): low activity
